# Results as given in US20130225548A1, “Pyridine Derivative and Medicinal Agent” (NIPPON SHINYAKU CO., LTD., priority 2010, published 2013).
# Structures can show the parent of a compound that is named as a salt.
# Biological target: T1, Syk tyrosine kinase (Homo sapiens, UniProt P43405)
# T1 construct: purchased Carna Biosciences, Inc
# Assay: Test for Syk tyrosine kinase inhibitory activity (ELISA)
# Type: biochemical
# Conditions: Syk tyrosine kinase (Carna Biosciences), 25 μM ATP in substrate solution, 30° C. 1 hour, n=2; read-out: Evaluation (IC50, concentration inhibiting the tyrosine kinase activity at 50%)
# In short: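 Syk kinase (0.025 nM stock before addition) with 625 nM biotinylated peptide and 25 μM ATP (substrate-solution levels) in Tris pH 7.5, MgCl2, DTT; 1 h at 30 °C on streptavidin plates. Phosphotyrosine detected by HRP anti-pTyr antibody, TMB, A450; IC50 by non-linear regression.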
row,Compound,IC50
1,"CO[C@H]1CC[C@H](n2cnc3ccc(-c4cc(C5CC5)cc(Nc5cc(C#N)ccn5)n4)cc32)CC1 [Example 138, 2-({4-cyclopropyl-6-[1-(trans-4-methoxycyclohexyl)-1H-benzimidazol-6-yl]pyridin-2-yl}amino)pyridine-4-carbonitrile hydrochloride]",50 to 500 nM
2,"N#Cc1ccnc(Nc2cc(C3CC3)cc(-c3ccc4ncn(C5CCOCC5)c4c3)n2)c1 [Example 139, 2-({4-cyclopropyl-6-[1-(tetrahydro-2H-pyran-4-yl)-1H-benzimidazol-6-yl]pyridin-2-yl}amino)pyridine-4-carbonitrile hydrochloride]",5 to 50 nM
3,"N#Cc1ccnc(Nc2cc(C3CC3)cc(-c3ccc4ncn(C5CCCC5O)c4c3)n2)c1 (stereo not drawn) [Example 140, 2-[(4-cyclopropyl-6-{1-[trans-2-hydroxycyclopenyl]-1H-benzimidazol-6-yl}pyridine-2-yl)amino]pyridine-4-carbonitrile hydrochloride]",5 to 50 nM
4,"CCn1cnc2ccc(-c3cc(C4CC4)cc(Nc4cc(C#N)ccn4)n3)cc21 [Example 142, 2-{[4-cyclopropyl-6-(1-ethyl-1H-benzimidazol-6-yl)pyridin-2-yl]amino}pyridine-4-carbonitrile hydrochloride]",50 to 500 nM
5,"N#Cc1ccnc(Nc2cc(C3CC3)cc(-c3ccc4ncn(C(CO)CO)c4c3)n2)c1 [Example 143, 2-({4-cyclopropyl-6-[1-(1,3-dihydroxypropan-2-yl)-1H-benzimidazol-6-yl]pyridin-2-yl}amino)pyridine-4-carbonitrile hydrochloride]",5 to 50 nM
6,"CC(C)(O)Cn1cnc2ccc(-c3cc(C4CC4)cc(Nc4cc(C#N)ccn4)n3)cc21 [Example 144, 2-({4-cyclopropyl-6-[1-(2-hydroxy-2-methylpropyl)-1H-benzimidazol-6-yl]pyridin-2-yl}amino)pyridine-4-carbonitrile hydrochloride]",50 to 500 nM
7,"N#Cc1ccnc(Nc2cc(C3CC3)cc(-c3ccc4ncn([C@H]5CC[C@@H](O)CC5)c4c3)n2)c1 [Example 145, 2-({4-cyclopropyl-6-[1-(cis-4-hydroxycyclohexyl)-1H-benzimidazol-6-yl]pyridin-2-yl}amino)pyridine-4-carbonitrile hydrochloride]",5 to 50 nM
8,"N#Cc1ccnc(Nc2cc(C3CC3)cc(-c3ccc4c(c3)ncn4CCO)n2)c1 [Example 147, 2-({4-cyclopropyl-6-[1-(2-hydroxyethyl)-1H-benzimidazol-5-yl]pyridin-2-yl}amino)pyridine-4-carbonitrile hydrochloride]",50 to 500 nM
9,"COCCn1cnc2cc(-c3cc(C4CC4)cc(Nc4cc(C#N)ccn4)n3)ccc21 [Example 148, hydrochloride]",50 to 500 nM
10,"CCn1cnc2cc(-c3cc(C4CC4)cc(Nc4cc(C#N)ccn4)n3)ccc21 [Example 149, 2-{[4-cyclopropyl-6-(1-ethyl-1H-benzimidazol-5-yl)pyridin-2-yl]amino}pyridine-4-carbonitrile hydrochloride]",50 to 500 nM
11,"N#Cc1ccnc(Nc2cc(C3CC3)cc(-c3ccc4c(c3)ncn4C3CC3)n2)c1 [Example 150, 2-{[4-cyclopropyl-6-(1-cyclopropyl-1H-benzimidazol-5-yl)pyridin-2-yl]amino}pyridin-4-carbonitrile hydrochloride]",50 to 500 nM
12,"CC(=O)NCCn1cnc2cc(-c3cc(C4CC4)cc(Nc4cc(C#N)ccn4)n3)ccc21 [Example 151, N-[2-(5-{6-[(4-cyanopyridin-2-yl)amino]-4-cyclopropylpyridin-2-yl}-1H-benzimidazol-1-yl)ethyl]acetamide hydrochloride]",5 to 50 nM
13,"Cn1cnc2ccc(-c3cc(C4CC4)cc(Nc4cc(C#N)ccn4)n3)cc21 [Example 153, 2-{[4-cyclopropyl-6-(1-methyl-1H-benzimidazol-6-yl)pyridin-2-yl]amino}pyridine-4-carbonitrile hydrochloride]",5 to 50 nM
14,"N#Cc1ccnc(Nc2cc(C3CC3)cc(-c3ccc(CN4CCCN(C(N)=O)CC4)nc3)n2)c1 [Example 154, 4-({6-[(4-cyanopyridin-2-yl)amino]-4-cyclopropyl-2,3′-bipyridin-6′-yl}methyl)-1,4-diazepane-1-carboxamide hydrochloride]",50 to 500 nM
15,"Cc1cc(N2CCS(=O)(=O)CC2)ncc1-c1cc(C2CC2)cc(Nc2cc(C#N)ccn2)n1 [Example 155, 2-{[4-cyclopropyl-6′-(1,1-dioxidethiomorpholin-4-yl)-4′-methyl-2,3′-bipyridin-6-yl]amino}pyridine-4-carbonitrile hydrochloride]",5 to 50 nM
16,"N#Cc1ccnc(Nc2cc(C3CC3)cc(-c3ccc4[nH]c(=O)n([C@H]5CC[C@H](O)CC5)c4c3)n2)c1 [Example 156, 2-({4-cyclopropyl-6-[3-(trans-4-hydroxycyclohexyl)-2oxo-2,3-dihydro-1H-benzimidazol-5-yl]pyridin-2-yl}amino)pyridine-4-carbonitrile hydrochloride]",< 5 nM

row,Compound,IC50
1,"N#Cc1ccnc(Nc2cc(C3CC3)cc(-c3ccc4ccnc(N5CCNC(=O)C5)c4c3)n2)c1 [Example 158, 2-({4-cyclopropyl-6-[1-(3-oxopiperazin-1-yl)isoquinolin-7-yl]pyridin-2-yl}amino)pyridine-4-carbonitrile hydrochloride]",< 5 nM
2,"Cc1nc2ccc(-c3cc(C4CC4)cc(Nc4cc(C#N)ccn4)n3)cc2n1[C@H]1CC[C@H](O)CC1 [Example 159, 2-({4-cyclopropyl-6-[1-trans-4-hydroxycylohexyl)-2-methyl-1H-benzimidazol-6-yl]pyridin-2-yl}amino)pyridine-4-carbonitrile hydrochloride]",< 5 nM
3,"CC(C)c1nc2ccc(-c3cc(C4CC4)cc(Nc4cc(C#N)ccn4)n3)cc2n1[C@H]1CC[C@H](O)CC1 [Example 161, 2-({4-cyclopropyl-6-[1-(trans-4-hydroxycyclohexyl)-2-(propan-2-yl)-1H-benzimidazol-6-yl]pyridin-2-y}amino)pyridine-4-carbonitrile hydrochloride]",< 5 nM
4,"N#Cc1ccnc(Nc2cc(C3CC3)cc(-c3ccc4nc(CO)n([C@H]5CC[C@H](O)CC5)c4c3)n2)c1 [Example 162, 2-({4-cyclopropyl-6-[1-(trans-4-hydroxycyclohexyl)-2-(hydroxymethyl)-1H-benzimidazol-6-yl]pyridin-2-yl}amino)pyridine-4-carbonitrile hydrochloride]",< 5 nM
5,"N#Cc1ccnc(Nc2cc(C3CC3)cc(-c3ccc4ccnc(N5CCNCC5)c4c3)n2)c1 [Example 163, 2-({4-cyclopropyl-6-[1-(piperazin-1-yl)isoquinolin-7-yl]pyridin-2-yl}amino)pyridine-4-carbonitrile hydrochloride]",5 to 50 nM
6,"N#Cc1ccnc(Nc2cc(C3CC3)cc(-c3ccc4ccnc(N5CCC(O)CC5)c4c3)n2)c1 [Example 164, 2-({4-cyclopropyl-6-[1-(4-hydroxypiperidin-1-yl)isoquinolin-7-yl]pyridin-2-yl}amino)pyridine-4-carbonitrile hydrochloride]",5 to 50 nM
7,"N#Cc1ccnc(Nc2cc(C3CC3)cc(-c3ccc4ccnc(N5CC[C@@H](O)C5)c4c3)n2)c1 [Example 165, 2-[(4-cyclopropyl-6-{1-[(3R)-3-hydroxypyrrolidin-1-]isoquinolin-7-yl}pyridin-2-yl)amino]pyridine-4-carbonitrile hydrochloride]",5 to 50 nM
8,"N#Cc1ccnc(Nc2cc(C3CC3)cc(-c3ccc4ccnc(N5CC(O)C5)c4c3)n2)c1 [Example 166, 2-({4cyclopropyl-6-[1-(3-hydroxyazetidin-1-yl)isoquinolin-7-yl]pyridin-2-yl}amino)pyridine-4-carbonitrile hydrochloride]",5 to 50 nM
9,"N#Cc1ccnc(Nc2cc(C3CC3)cc(-c3ccc4ccnc(N5CCC[C@H]5CO)c4c3)n2)c1 [Example 167, 2-[(4-cyclopropyl-6-{1-[(2S)-2-(hydroxymethyl)pyrrolidin-1-yl]isoquinolin-7-yl}pyridin-2-yl)amino]pyridine-4-carbonitrile hydrochloride]",5 to 50 nM
10,"N#Cc1ccnc(Nc2cc(C3CC3)cc(-c3ccc4ccnc(N5CC[C@@H](F)C5)c4c3)n2)c1 [Example 168, 2-[(4-cyclopropyl-6-{1-[(3R)-3-fluoropyrrolidin-1-yl]isoquinolin-7-yl}-pyridin-2-yl)amino]pyridine-4-carbonitrile hydrochloride]",50 to 500 nM
11,"N#Cc1ccnc(Nc2cc(C3CC3)cc(-c3ccc4ccnc(N5CC[C@@H](N)C5)c4c3)n2)c1 [Example 169, hydrochloride]",5 to 50 nM
12,"N#Cc1ccnc(Nc2cc(C3CC3)cc(-c3ccc4ccnc(N5CCNC5=O)c4c3)n2)c1 [Example 171, 2-({4-cyclopropyl-6-[1-(2-oxo-imidazolidin-1-yl)isoquinolin-7-yl]pyridin-2-yl}amino)pyridine-4-carbonitrile hydrochloride]",5 to 50 nM
13,"N#Cc1ccnc(Nc2cc(C3CC3)cc(-c3ccc4ncn([C@H]5CC[C@H](N)CC5)c4c3)n2)c1 [Example 172, 2-({6-[1-(trans-4-aminocyclohexyl)-1H-benzimidazol-6-yl]-4-cyclopropylpyridin-2-yl}amino)pyridine-4-carbonitrile hydrochloride]",5 to 50 nM
14,"N#Cc1ccnc(Nc2cc(C3CC3)cc(-c3ccc4ncn(C5CCNCC5)c4c3)n2)c1 [Example 173, hydrochloride]",< 5 nM
15,"N#Cc1ccnc(Nc2cc(C3CC3)cc(-c3ccc4ncn(Cc5ccc(=O)[nH]c5)c4c3)n2)c1 [Example 174, 2-({4-cyclopropyl-6-[1-[(6-oxo-1,6-dihydropyridin-3-yl)methyl]-1H-benzimidazol-6-yl}pyridin-2-yl)amino]pyridine-4-carbonitrile hydrochloride]",5 to 50 nM
16,"N#Cc1ccnc(Nc2cc(C3CC3)cc(-c3ccc4nc([C@H]5CC[C@H](O)CC5)[nH]c4c3)n2)c1 [Example 175, 2-({4-cyclopropyl-6-[2-(trans-4-hydroxycyclohexyl)-1H-benzimidazol-6-yl]pyridin-2-yl}amino)pyridine-4-carbonitrile hydrochloride]",50 to 500 nM
